Laboratory results as given in patent US20100311714A1, “1H-IMIDAZO[4,5-c]QUINOLINONE COMPOUNDS” (priority 2009, published 2010).
Like-named read-outs stand apart in the source and are kept apart here.

Columns and labels:
PI3K alfa = target: T1, PI3K alfa (Homo sapiens, UniProt P42336); experiment: PI3K alpha kinase assay (Kinase-Glo luminescence); assay type: biochemical
T1 construct: His tag (C); made in house; host or cells: baculovirus BV1075; Tn5 (Trichoplusia ni) or TiniPro insect cells
Summary of the method: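 Kinase-Glo luminescence read of ATP remaining after PI3Kα (10 nM) phosphorylates 10 μg/mL bovine liver phosphatidylinositol with 1 μM ATP, pH 7.5 TRIS, 3 mM MgCl2, 0.05% CHAPS; 60 min at room temperature. IC50 from 4-parameter logistic fit over 8 concentrations.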

[1] = test system: S6 Ribosomal Protein phosphorylation Ser235/236 in TSC1 null mouse embryo fibroblast (MEF) cells; experiment: Reverse protein array, S6 Ribosomal Protein phosphorylation in TSC1 null MEF cells; assay type: cell-based; details: 1 h, TSC1-/- MEFs, 60 minutes
Experimental: TSC1−/− MEFs cells (provided by D. Kwiatkowski), were cultivated in Dulbecco's modified Eagle's medium (DMEM high Glucose, GIBCO, cat. No. 41956-039) supplemented with 10% heat inactivated fetal bovine calf serum (Amimed, cat. No. 2-01F16-I), 1% L-Glutamine (Invitrogen, cat. No. 25030-02), 1% penicillin-streptomycin (GIBCO, cat. No. 15140-114) at 37° C. in a 5% CO2 and 95% relative humidity atmosphere incubator.
The TSC1−/− cells were trypsinized and counted with a CASY TT cell counter (Schärfe System GmbH, Reutlingen Germany). The cells were diluted in fresh DMEM complete medium and 0.75×10^4 cells/150 μl/well seeded in 96-well TPP-tissue culture plates (TPP, cat. No. 92096). The plates were incubated at 37° C. and 5% CO2 under humidified condition for at least 20 h. Working solutions were prepared freshly as serial 8 step dilutions (vol/vol) in DMSO on the day of the experiment. The working solutions were further diluted 1/5000 in cell culture medium to get final compound concentrations of […]. The final DMSO concentration was kept constant at 0.02%. cell culture medium containing 0.02% DMSO was used as vehicle treatment control. Post incubation, the cells were treated with the serial compound dilution. 50 μl of the compound medium mixture was added to the wells containing cells and 150 μl DMEM medium and incubated for 60 minutes (37° C., 5% CO2). After 60 minutes of incubation, the medium mixture was quickly removed by aspiration. For cell lysis, a mixture of 10% CLB1 CeLyA lysis buffer (Zeptosens, cat. No. 9000), 90% CSBL1 CeLyA spotting buffer (Zeptosens, cat. No. 9020) was freshly prepared and supplemented with 1% Octyl β-D-glucopyranoside (SIGMA, cat. No. 08001-5G) and 1 mM Na-Orthovanadate (Sigma, cat No. S-6508). 50 μl of the described lysis buffer mix was added to each well, followed by 10 minutes of incubation on ice. After an additional freeze-thaw cycle, another 50 μl of the lysis buffer mix without Octyl β-D-glucopyranoside was added to the wells, and 90 μl of the cell lysate was transferred to a 96-well V-bottom plate (Fisher Scientific, cat. No. 6067Y), followed by a centrifugation step (5 min, 1500 rpm at 19° C. in an Eppendorf 5810R centrifuge) to remove the unlysed cell debris.
The spotting of the chips follows the previous described method.
The signal detection and the data analysis follows the previous described method using the pS6 ribosomal protein Ser235/236 (CST, cat. No. #2211) as a primary antibody.

T1 sequence (P42336 with tags, fused parts or gaps limits assumed): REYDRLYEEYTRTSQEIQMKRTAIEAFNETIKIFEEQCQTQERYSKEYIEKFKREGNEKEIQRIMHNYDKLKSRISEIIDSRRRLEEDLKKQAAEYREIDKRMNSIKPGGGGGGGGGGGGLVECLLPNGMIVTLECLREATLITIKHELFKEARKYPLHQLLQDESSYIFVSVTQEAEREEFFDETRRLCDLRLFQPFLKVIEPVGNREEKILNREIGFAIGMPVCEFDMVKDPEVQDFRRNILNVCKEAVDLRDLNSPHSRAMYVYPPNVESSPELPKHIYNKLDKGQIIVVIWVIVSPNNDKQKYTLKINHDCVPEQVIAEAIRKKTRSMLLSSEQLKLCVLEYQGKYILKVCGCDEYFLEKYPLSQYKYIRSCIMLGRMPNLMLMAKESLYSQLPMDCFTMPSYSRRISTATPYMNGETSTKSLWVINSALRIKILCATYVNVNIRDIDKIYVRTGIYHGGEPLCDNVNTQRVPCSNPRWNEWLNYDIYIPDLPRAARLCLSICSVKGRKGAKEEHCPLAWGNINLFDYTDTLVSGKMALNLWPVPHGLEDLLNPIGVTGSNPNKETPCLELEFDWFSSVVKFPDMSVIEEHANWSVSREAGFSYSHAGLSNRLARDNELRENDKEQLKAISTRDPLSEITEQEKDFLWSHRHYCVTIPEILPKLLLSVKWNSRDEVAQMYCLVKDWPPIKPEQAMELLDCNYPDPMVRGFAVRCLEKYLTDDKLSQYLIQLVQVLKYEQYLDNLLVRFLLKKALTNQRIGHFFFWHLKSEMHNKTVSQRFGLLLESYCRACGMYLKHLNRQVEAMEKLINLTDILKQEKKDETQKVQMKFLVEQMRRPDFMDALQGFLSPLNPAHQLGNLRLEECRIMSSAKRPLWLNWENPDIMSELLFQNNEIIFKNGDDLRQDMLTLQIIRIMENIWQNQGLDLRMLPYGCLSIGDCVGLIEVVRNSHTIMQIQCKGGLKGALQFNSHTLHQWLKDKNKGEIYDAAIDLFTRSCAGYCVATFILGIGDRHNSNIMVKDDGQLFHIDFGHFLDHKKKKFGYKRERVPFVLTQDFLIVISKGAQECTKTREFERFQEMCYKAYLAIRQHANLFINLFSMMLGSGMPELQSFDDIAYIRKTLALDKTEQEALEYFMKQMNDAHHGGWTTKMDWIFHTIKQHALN

IC50 (PI3K alfa; read-out: EPK_PI3Kalfa/IC50) [µM] | IC50 (PI3K alfa; read-out: PI3Kalfa/IC50) [µM] | Compound | IC50 ([1]; read-out: p-S6 IC50) [µM] | IC50 ([1]; read-out: p-S6) [µM]
0.0655 | – | CCNc1ncc(-c2ccc3ncc4c(c3c2)n(-c2ccc(N3CC[C@@H](O)C3)nc2C)c(=O)n4C)cc1COCC [Example 34.4, 8-(5-Ethoxymethyl-6-ethylamino-pyridin-3-yl)-1-[6-((R)-3-hydroxy-pyrrolidin-1-yl)-2-methyl-pyridin-3-yl]-3-methyl-1,3-dihydro-imidazo[4,5-c]quinolin-2-one] | 0.008 | –
0.04 | – | CNc1ncc(-c2ccc3ncc4c(c3c2)n(-c2ccc(N3CC(O)C3)nc2C)c(=O)n4C)cc1F [Example 29.3, 8-(5-Fluoro-6-methylamino-pyridin-3-yl)-1-[6-(3-hydroxy-azetidin-1-yl)-2-methyl-pyridin-3-yl]-3-methyl-1,3-dihydro-imidazo[4,5-c]quinolin-2-one] | 0.0078 | –
0.031 | – | COc1cc(-c2ccc3ncc4c(c3c2)n(-c2ccc(N3CC(O)C3)nc2C)c(=O)n4C)cnc1CO [Example 29.5, 1-[6-(3-Hydroxy-azetidin-1-yl)-2-methyl-pyridin-3-yl]-8-(6-hydroxymethyl-5-methoxy-pyridin-3-yl)-3-methyl-1,3-dihydro-imidazo[4,5-c]quinolin-2-one] | 0.0391 | –
0.032 | – | CNc1ncc(-c2ccc3ncc4c(c3c2)n(-c2ccc(N3CCC(O)C3)nc2C)c(=O)n4C)cn1 (centres unmarked) [Example 27.2, 1-[6-(3-Hydroxy-pyrrolidin-1-yl)-2-methyl-pyridin-3-yl]-3-methyl-8-(2-methylamino-pyrimidin-5-yl)-1,3-dihydro-imidazo[4,5-c]quinolin-2-one] | 0.002 | –
0.014 | – | Cc1nc(N2CCC2)ccc1-n1c(=O)n(C)c2cnc3ccc(-c4cncc(N5CCC5)c4)cc3c21 [Example 23.1, 1-(6-Azetidin-1-yl-2-methyl-pyridin-3-yl)-8-(5-azetidin-1-yl-pyridin-3-yl)-3-methyl-1,3-dihydro-imidazo[4,5-c]quinolin-2-one] | 0.002 | –
0.021 | – | Cc1nc(F)ccc1-n1c(=O)n(C)c2cnc3ccc(-c4cncc(C(C)(C)O)c4)cc3c21 [Example 7.8, 1-(6-Fluoro-2-methyl-pyridin-3-yl)-8-[5-(1-hydroxy-1-methyl-ethyl)-pyridin-3-yl]-3-methyl-1,3-dihydro-imidazo[4,5-c]quinolin-2-one] | 0.01 | –
0.007 | – | Cc1nc(N2CCC2)ccc1-n1c(=O)n(C)c2cnc3ccc(-c4cncc(C(C)(C)O)c4)cc3c21 [Example 23.3, 1-(6-Azetidin-1-yl-2-methyl-pyridin-3-yl)-8-[5-(1-hydroxy-1-methyl-ethyl)-pyridin-3-yl]-3-methyl-1,3-dihydro-imidazo[4,5-c]quinolin-2-one] | – | –

Continued, compound first:

Compound | IC50 (PI3K alfa; read-out: EPK_PI3Kalfa/IC50) [µM] | IC50 (PI3K alfa; read-out: PI3Kalfa/IC50) [µM] | IC50 ([1]; read-out: p-S6 IC50) [µM] | IC50 ([1]; read-out: p-S6) [µM]
Cn1c(=O)n(-c2cccnc2F)c2c3cc(-c4cnc(N)c(C(F)(F)F)c4)ccc3ncc21 [Example 6.2, 8-(6-Amino-5-trifluoromethyl-pyridin-3-yl)-1-(2-fluoro-pyridin-3-yl)-3-methyl-1,3-dihydro-imidazo[4,5-c]quinolin-2-one] | – | 0.009 | – | 0.00147
COc1ccc(-c2ccc3ncc4c(c3c2)n(-c2cnccc2C)c(=O)n4C)cn1 [Example 4.3, 8-(6-Methoxy-pyridin-3-yl)-3-methyl-1-(4-methyl-pyridin-3-yl)-1,3-dihydro-imidazo[4,5-c]quinolin-2-one] | – | 0.073 | – | 0.22
Cc1cccnc1-n1c(=O)n(C)c2cnc3ccc(-c4cnc(N)c(C(F)(F)F)c4)cc3c21 [Example 3.12, 8-(6-Amino-5-trifluoromethyl-pyridin-3-yl)-3-methyl-1-(3-methyl-pyridin-2-yl)-1,3-dihydro-imidazo[4,5-c]quinolin-2-one] | – | 0.016 | – | 0.0132
CNc1ccc(-c2ccc3ncc4c(c3c2)n(-c2cccnc2C)c(=O)n4C)cn1 [Example 2.13, 3-Methyl-8-(6-methylamino-pyridin-3-yl)-1-(2-methyl-pyridin-3-yl)-1,3-dihydro-imidazo[4,5-c]quinolin-2-one] | – | 0.014 | – | 0.00278
Cc1nc(C(F)(F)F)ccc1-n1c(=O)n(C)c2cnc3ccc(-c4cncc(C(C)(C)O)c4)cc3c21 [Example 33.1, 8-[5-(1-Hydroxy-1-methyl-ethyl)-pyridin-3-yl]-3-methyl-1-(2-methyl-6-trifluoromethyl-pyridin-3-yl)-1,3-dihydro-imidazo[4,5-c]quinolin-2-one] | 0.013 | – | 0.002 | –
Cc1nc(N2CCCC2)ccc1-n1c(=O)n(C)c2cnc3ccc(-c4cncc(C(C)(C)O)c4)cc3c21 [Example 25.3, 8-[5-(1-Hydroxy-1-methyl-ethyl)-pyridin-3-yl]-3-methyl-1-(2-methyl-6-pyrrolidin-1-yl-pyridin-3-yl)-1,3-dihydro-imidazo[4,5-c]quinolin-2-one] | < 0.003 | – | < 0.000457 | –
CNc1ncc(-c2ccc3ncc4c(c3c2)n(-c2ccc(N(C)CCO)nc2C)c(=O)n4C)cn1 [Example 26.2, 1-{6-[(2-Hydroxy-ethyl)-methyl-amino]-2-methyl-pyridin-3-yl}-3-methyl-8-(2-methylamino-pyrimidin-5-yl)-1,3-dihydro-imidazo[4,5-c]quinolin-2-one] | 0.063 | – | < 0.000457 | –
Cc1ncccc1-n1c(=O)n(C)c2cnc3ccc(-c4ccc(N)nc4)cc3c21 [Example 2.7, 8-(6-Amino-pyridin-3-yl)-3-methyl-1-(2-methyl-pyridin-3-yl)-1,3-dihydro-imidazo[4,5-c]quinolin-2-one] | – | 0.018 | – | 0.0124
CCOc1cc(-c2ccc3ncc4c(c3c2)n(-c2cccnc2C)c(=O)n4C)cnc1COC [Example 2.28, 8-(5-Ethoxy-6-methoxymethyl-pyridin-3-yl)-3-methyl-1-(2-methyl-pyridin-3-yl)-1,3-dihydro-imidazo[4,5-c]quinolin-2-one] | 0.267 | – | 0.014 | –
CNc1ncc(-c2ccc3ncc4c(c3c2)n(-c2ccc(N3CC[C@H](O)C3)nc2C)c(=O)n4C)cc1C(F)(F)F [Example 32.5, 1-[6-((S)-3-Hydroxy-pyrrolidin-1-yl)-2-methyl-pyridin-3-yl]-3-methyl-8-(6-methylamino-5-trifluoromethyl-pyridin-3-yl)-1,3-dihydro-imidazo[4,5-c]quinolin-2-one] | 0.009 | – | 0.001 | –
CNC(=O)c1ccc(-c2ccc3ncc4c(c3c2)n(-c2ncccc2C)c(=O)n4C)cc1 [Example 3.5, N-Methyl-4-[3-methyl-1-(3-methyl-pyridin-2-yl)-2-oxo-2,3-dihydro-1H-imidazo[4,5-c]quinolin-8-yl]-benzamide] | – | 0.053 | – | –
CNc1ccc(-c2ccc3ncc4c(c3c2)n(-c2ccc(N3CCC3)nc2C)c(=O)n4C)cn1 [Example 23.4, 1-(6-Azetidin-1-yl-2-methyl-pyridin-3-yl)-3-methyl-8-(6-methylamino-pyridin-3-yl)-1,3-dihydro-imidazo[4,5-c]quinolin-2-one] | 0.027 | – | – | –
Cc1nc(C(C)(C)O)ccc1-n1c(=O)n(C)c2cnc3ccc(-c4cnc(N)c(C(F)(F)F)c4)cc3c21 [Example 31.5, 8-(6-Amino-5-trifluoromethyl-pyridin-3-yl)-1-[6-(1-hydroxy-1-methyl-ethyl)-2-methyl-pyridin-3-yl]-3-methyl-1,3-dihydro-imidazo[4,5-c]quinolin-2-one] | 0.006 | – | – | –
CCOc1cc(-c2ccc3ncc4c(c3c2)n(-c2ccc(N3CCC3)nc2C)c(=O)n4C)cnc1COC [Example 23.5, 1-(6-Azetidin-1-yl-2-methyl-pyridin-3-yl)-8-(5-ethoxy-6-methoxymethyl-pyridin-3-yl)-3-methyl-1,3-dihydro-imidazo[4,5-c]quinolin-2-one] | 0.021 | – | – | –
Cc1ncccc1-n1c(=O)n(C)c2cnc3ccc(-c4ccc(OCCCN(C)C)nc4)cc3c21 [Example 2.10, 8-[6-(3-Dimethylamino-propoxy)-pyridin-3-yl]-3-methyl-1-(2-methyl-pyridin-3-yl)-1,3-dihydro-imidazo[4,5-c]quinolin-2-one] | – | – | – | 0.159
